{
  "source": "paper PMC11109052",
  "about": "“Metabolism characterization and toxicity of N-hydap, a marine candidate drug for lung cancer therapy by LC–MS method” (Natural Products and Bioprospecting, 2024)",
  "key": {"Ugt1a1": {"tested_on": "Ugt1a1", "experiment": "Real-time PCR mRNA level after 7 days gavage: Ugt1a1", "assay_type": "in vivo, mice", "design": "key to UGT1A1 mNA expression: ↑: up-regulation; ↓: down-regulation; –: no change", "experimental": "(§1) Mice were randomly divided into four groups, with eight animals in each group. The mice received oral pretreatment with N-hydap for 7 days at doses of 2, 5, and 10 mg/kg/day, which were considered as the low dose, medium dose, and high dose, respectively. Correspondingly, the control group received PBS. On the 8th day, the liver and kidneys were removed, and organs from eight mice per group were combined to prepare MLMs and MKMs using the detailed procedures above. Subsequently, we determined the activity of CYP and UGT enzymes by specific substrate metabolized with MLMs (0.5 mg/mL) and MKMs (0.2 mg/mL) in vitro. Specifically, the following selective substrates were used for the respective enzymes: PH (1 μM) for CYP1A2, DIC (1 μM) for CYP2C9, MP (90 μM) for CYP2C19, DM (1 μM) for CYP2D6, CZX (10 μM) for CYP2E1, Tes (1 μM) for CYP3A4, SN38 (1 μM) for UGT1A1, CACD (100 μM) for UGT1A3, Sero (20 μM) for UGT1A6, and Prop (1 μM) for UGT1A9. All substrates were dissolved in methanol or DMSO. The incubation procedure was carried out as mentioned above, and the reaction was terminated with VER (20 ng/mL) in ESI+ mode and CLP (200 ng/mL) in ESI− mode. In the ex vivo experiments, the activity of enzymes was measured by quantifying the production of various metabolites (nM/mg protein/min). The metabolites and their corresponding enzymes are as follows: APAP from PH, 4-OH-DIC from DIC, 4-OH-MP from MP, DXO from DM, 6-OH-CZX from CZX, 6-OH-Tes from Tes, SN38-G from SN38, CACD-G from CACD, Sero-G from Sero, Prop-G from Prop. The measurements were performed using multiple reaction monitoring (MRM) transitions, which are specific mass spectrometry transitions used for quantification. […]\n(§2) Total RNA from liver and kidney samples taken after 7 days of N-hydap gavage was extracted using the Animal Total RNA Isolation Kit (Foregene, Chengdu, Sichuan, China) following the manufacturer’s instructions. The concentrations of total RNA were determined by a nucleic acid concentration tester at 260/280 nm. […]"}, "CYP2B6": {"tested_on": "CYP2B6", "experiment": "Western blot protein level after 7 days gavage: CYP2B6", "assay_type": "in vivo", "settings": "mice, p.o. 7 days; liver", "experimental": "Mice were randomly divided into four groups, with eight animals in each group. The mice received oral pretreatment with N-hydap for 7 days at doses of 2, 5, and 10 mg/kg/day, which were considered as the low dose, medium dose, and high dose, respectively. Correspondingly, the control group received PBS. On the 8th day, the liver and kidneys were removed, and organs from eight mice per group were combined to prepare MLMs and MKMs using the detailed procedures above. Subsequently, we determined the activity of CYP and UGT enzymes by specific substrate metabolized with MLMs (0.5 mg/mL) and MKMs (0.2 mg/mL) in vitro. […] In the ex vivo experiments, the activity of enzymes was measured by quantifying the production of various metabolites (nM/mg protein/min). […] The measurements were performed using multiple reaction monitoring (MRM) transitions, which are specific mass spectrometry transitions used for quantification. […]\nAfter 7 days of N-hydap gavage, the liver and kidney tissues were lysed using RIPA buffer supplemented with a 1% protease inhibitor cocktail. […] Western blot signals were detected using an ECL chemiluminescence detection agent. The relative intensity of each protein band was scanned and quantified using Image J software."}, "Ugt1a6a": {"tested_on": "Ugt1a6a", "experiment": "Real-time PCR mRNA level after 7 days gavage: Ugt1a6a (human homolog UGT1A6)", "assay_type": "in vivo, mice", "design": "key to UGT1A6 mNA expression: ↑: up-regulation; ↓: down-regulation; –: no change", "experimental": "as §1, §2"}, "Cyp3a11": {"tested_on": "Cyp3a11", "experiment": "Real-time PCR mRNA level after 7 days gavage: Cyp3a11 (human homolog CYP3A4)", "assay_type": "in vivo, mice", "design": "key to CYP3A4 mNA expression: ↑: up-regulation; ↓: down-regulation; –: no change", "experimental": "Mice were randomly divided into four groups, with eight animals in each group. The mice received oral pretreatment with N-hydap for 7 days at doses of 2, 5, and 10 mg/kg/day, which were considered as the low dose, medium dose, and high dose, respectively. Correspondingly, the control group received PBS. On the 8th day, the liver and kidneys were removed, and organs from eight mice per group were combined to prepare MLMs and MKMs using the detailed procedures above. Subsequently, we determined the activity of CYP and UGT enzymes by specific substrate metabolized with MLMs (0.5 mg/mL) and MKMs (0.2 mg/mL) in vitro. Specifically, the following selective substrates were used for the respective enzymes: PH (1 μM) for CYP1A2, DIC (1 μM) for CYP2C9, MP (90 μM) for CYP2C19, DM (1 μM) for CYP2D6, CZX (10 μM) for CYP2E1, Tes (1 μM) for CYP3A4, SN38 (1 μM) for UGT1A1, CACD (100 μM) for UGT1A3, Sero (20 μM) for UGT1A6, and Prop (1 μM) for UGT1A9. All substrates were dissolved in methanol or DMSO. The incubation procedure was carried out as mentioned above, and the reaction was terminated with VER (20 ng/mL) in ESI+ mode and CLP (200 ng/mL) in ESI− mode. In the ex vivo experiments, the activity of enzymes was measured by quantifying the production of various metabolites (nM/mg protein/min). The metabolites and their corresponding enzymes are as follows: APAP from PH, 4-OH-DIC from DIC, 4-OH-MP from MP, DXO from DM, 6-OH-CZX from CZX, 6-OH-Tes from Tes, SN38-G from SN38, CACD-G from CACD, Sero-G from Sero, Prop-G from Prop. The measurements were performed using multiple reaction monitoring (MRM) transitions, which are specific mass spectrometry transitions used for quantification. The optimized parameters for each metabolite, such as declustering potential and collision energy, were described in Supplementary Table 1. All experiments were conducted in triplicate, to ensure accuracy and reproducibility.\nTotal RNA from liver and kidney samples taken after 7 days of N-hydap gavage was extracted using the Animal Total RNA Isolation Kit (Foregene, Chengdu, Sichuan, China) following the manufacturer’s instructions. The concentrations of total RNA were determined by a nucleic acid concentration tester at 260/280 nm. A HiScript III RT SuperMix for qPCR (+ gDNA wiper) (Vazyme, Nanjing, Jiangsu, China) was used to measure the concentration of the synthesized cDNA. ChamQ SYBR qPCR Master Mix (Vazyme, Nanjing, Jiangsu, China) and detection were performed using a Light Cycler 480 II (ROCHE, Basel, Switzerland). Real-time PCR was used to analyze the relative mRNA levels of Cyp1a2, Cyp2b10, Cyp2c39, Cyp2d22, Cyp2e1, Cyp3a11, Ugt1a1, Ugt1a6a and Ugt1a9 (human homologs: CYP1A2, CYP2B6, CYP2C19, CYP2D6, CYP2E1, CYP3A4, UGT1A1, UGT1A6, and UGT1A9) in the liver, kidneys, and intestines. […]"}, "[1]": {"experiment": "Pharmacokinetics studies in mice (plasma)", "assay_type": "in vivo", "experimental": "Mice were fasted for 12 h with access to water before drug administration. N-Hydap was dissolved in a solution containing 50% methanol and water. Before administration, the drug was diluted with PBS to achieve concentrations of 5 mg/kg and 2 mg/kg for gastric gavage and tail vein administration, respectively. Blood samples (120 μL) were collected from the orbital venous plexus at 2, 5, 10, 15, 30, 60, 90, 120, 180, and 240 min after N-hydap administration. The blood samples were collected into heparinized micro-centrifuge tubes and immediately centrifuged at 8000 rpm for 5 min at 4 °C. Plasma samples were prepared by adding an internal standard (IS) solution, Tes to the samples, followed by vortexing. The mixtures were then centrifuged at 4 °C and 13,000 rpm for 15 min. The resulting supernatant was dried under vacuum for 3–4 h, and the dry powder was reconstituted with a solution of 50% methanol and water. Finally, the plasma samples were analyzed using LC–MS, following the previously described method.\nDAS 2.0 was used to calculate pharmacokinetic parameters using the standard non-compartmental method. All results were presented as mean ± standard deviation and significant differences were analyzed using One-way ANOVA by GraphPad Prism 8. Statistical significance was defined as p < 0.05."}, "[2]": {"settings": "mice, 2, 5, 10 mg/kg p.o. 7 days, liver and kidneys"}, "[3]": {"settings": "mouse, plasma, iv, mice, tail vein injection 2 mg/kg"}, "[4]": {"settings": "mouse, plasma, mice, oral administration 5 mg/kg"}},
  "note": "Like-named read-outs stand apart in the source and are kept apart here.",
  "data": [
    {"compound": "CC1CCC2C(C=CC(C)C2C(=O)c2c(O)c(C3(O)CCC(O)C4OC43)cn(O)c2=O)C1", "note": "(stereo not drawn) [N-hydap, N-Hydroxyapiosporamide]", "values": [
      {"measurement": "UGT1A1 mNA expression", "setting": "Ugt1a1; Kidney", "value": "↓"},
      {"measurement": "UGT1A1 mNA expression", "setting": "Ugt1a1; Liver", "value": "–"},
      {"measurement": "mRNA levels of Ugt1a1", "setting": "Ugt1a1; mice, 2, 5, 10 mg/kg p.o. 7 days, kidneys", "value": "slight reduction"},
      {"measurement": "increase of protein levels of CYP2B6", "setting": "CYP2B6", "value": 92, "unit": "%"},
      {"measurement": "UGT1A6 mNA expression", "setting": "Ugt1a6a; Kidney", "value": "↑"},
      {"measurement": "UGT1A6 mNA expression", "setting": "Ugt1a6a; Liver", "value": "↑"},
      {"measurement": "mRNA levels of Ugt1a6a", "setting": "Ugt1a6a; [2]", "value": "modest increase"},
      {"measurement": "CYP3A4 mNA expression", "setting": "Cyp3a11; Kidney", "value": "↑"},
      {"measurement": "CYP3A4 mNA expression", "setting": "Cyp3a11; Liver", "value": "↑"},
      {"measurement": "mRNA levels of Cyp3a11", "setting": "Cyp3a11; mice, 2, 5, 10 mg/kg p.o. 7 days, intestines", "value": "slight reduction"},
      {"measurement": "increase of mRNA levels of Cyp3a11", "setting": "Cyp3a11; [2]", "value": "78%-160%"},
      {"measurement": "CL, experimental results", "setting": "[1]; Table 4 experimental column", "value": "High clearance"},
      {"measurement": "CLz/F", "setting": "[1]; mice, tail vein injection 2 mg/kg", "value": "31 ± 1", "unit": "mL/min/kg"},
      {"measurement": "AUC(0-t)", "setting": "[1]; [3]", "value": 2.36, "unit": "µM·h"},
      {"measurement": "Cmax", "setting": "[1]; [3]", "value": "4.79 ± 0.726", "unit": "µM"},
      {"measurement": "Tmax", "setting": "[1]; [3]", "value": 3, "unit": "min"},
      {"measurement": "half-life", "setting": "[1]; mouse, plasma, iv, mice, tail vein injection 2 mg/kg, read-out: t1/2z", "value": "61.2 ± 14.2", "unit": "min"},
      {"measurement": "half-life", "setting": "[1]; mouse, plasma, Table 4 experimental column, read-out: T1/2, experimental results", "value": "< 60", "unit": "min"},
      {"measurement": "bioavailability", "setting": "[1]; mouse, plasma, mice, oral 5 mg/kg vs tail vein 2 mg/kg, read-out: F (oral bioavailability)", "value": 24, "unit": "%"},
      {"measurement": "AUC(0-t)", "setting": "[1]; [4]", "value": 1.41, "unit": "µM·h"},
      {"measurement": "Cmax", "setting": "[1]; [4]", "value": "2.06 ± 0.951", "unit": "µM"},
      {"measurement": "Tmax", "setting": "[1]; [4]", "value": 15, "unit": "min"},
      {"measurement": "CL/F", "setting": "[1]; mouse, plasma, mice, oral administration 5 mg/kg, read-out: CLz/F", "value": "134 ± 39", "unit": "mL/min/kg"},
      {"measurement": "half-life", "setting": "[1]; mouse, plasma, mice, oral administration 5 mg/kg, read-out: t1/2z", "value": "57.6 ± 12.7", "unit": "min"}
    ]}
  ]
}
